Assay results as given in patent publication US20080249123A1, “WORTMANNIN-RAPAMYCIN CONJUGATE AND USES THEREOF” (Wyeth, priority 2007, published 2008).

Legend:
PC3MM2 = experiment: In vitro cell culture growth assay (MTS), PC3MM2; assay type: cell-based, Human; details: prostate line, 3 days after drug treatment
Description: (§1) Human tumor cell lines (Table 3) include prostate lines LNCap and PC3MM2, breast lines MDA468, MCF7, renal line HTB44 (A498), colon line HCT116, and ovarian line OVCAR3. Cells were plated in 96-well culture plates.
(§2) One day following plating, the following conjugates (inhibitors) were added to cells: • Compound A 42,17′-linked wortmannin-adipate-rapamycin conjugate, diethylamine adduct • Compound B 42,17′-linked wortmannin-adipate-rapamycin conjugate. • Compound C 42,17′-linked wortmannin-succinate-rapamycin conjugate, N,N,N′-trimethyl 1,3-propanediamine adduct • Compound D 42,17′-linked wortmannin-adipate-rapamycin conjugate, diallylamine adduct • Compound E 42,17′-linked wortmannin-adipate-rapamycin conjugate, N,N,N′-trimethyl 1,3-propanediamine adduct • Compound F 42,17′-linked wortmannin-suberate-rapamycin conjugate, N,N,N′-trimethyl 1,3-propanediamine adduct.
(§3) Three days after drug treatment, viable cell densities were determined by metabolic conversion (by viable cells) of the MTS dye (3-(4,5-dimethylthiazol-2-yl)-5-(3 carboxymethoxyphenyl)-2-(4-sulfophenyl)-2H-tetrazolium, inner salt), a well established cell proliferation assay. The assays were performed using an assay kit purchased from Promega Corp. (Madison, Wis.) following the protocol supplied with the kit. The MTS assay results were read in a 96-well plate reader by measuring absorbance at 490 nm. The effect of each treatment was calculated as percent of control growth relative to the vehicle-treated cells grown in the same culture plate. The drug concentration that conferred 50% inhibition of growth was determined as IC50 (μg/mL). See, Table 3.

MCF7 = experiment: In vitro cell culture growth assay (MTS), MCF7; assay type: cell-based, Human; details: breast line, 3 days after drug treatment
Description: as §1, §2, §3

HCT116 = experiment: In vitro cell culture growth assay (MTS), HCT116; assay type: cell-based, Human; details: colon line, 3 days after drug treatment
Description: as §1, §2, §3

MDA468 = experiment: In vitro cell culture growth assay (MTS), MDA468; assay type: cell-based, Human; details: breast line, 3 days after drug treatment
Description: as §1, §2, §3

OVCAR3 = experiment: In vitro cell culture growth assay (MTS), OVCAR3; assay type: cell-based, Human; details: ovarian line, 3 days after drug treatment
Description: as §1, §2, §3

HTB44 (A498) = experiment: In vitro cell culture growth assay (MTS), HTB44 (A498); assay type: cell-based, Human; details: renal line, 3 days after drug treatment
Description: as §1, §2, §3

U87MG Glioma Xenografts = experiment: Xenograft tumor efficacy study, U87MG glioma in nude mice; assay type: in vivo; details: for Tumor Volume mean, Day 14 / S/T (D14), Survival over total in group / t/c (Treated over control) tumor volume, Day 14: Day 14
Description: Female nude mice at 10 weeks of age were inoculated subcutaneously on the flank with 200 μL U87MG (human gliobastoma) tumor cell suspension. U87MG cells were suspended in full growth media and were implanted at 10 million cells per mouse. Mice were staged when tumors reached approximately 200 mm^3 in sizes. Tumor bearing mice at staging (day 0) were randomized into treatment groups (n=10). […]
The growth of tumors was monitored twice a week for the duration of the experiment. Tumor size was measured using sliding vernier calipers, and the tumor mass was calculated using the formula (length×Width^2)/2.
The experimental methods for drug preparation, dosing route, regimen, etc (listed in the Table 4) were similar to the experiments presented in the Figures. The data in Table 4 and the Figures were derived from multiple and completely different experiments. Within Table 4, the data contained separate experiments.

LNCap = experiment: In vitro cell culture growth assay (MTS), LNCap; assay type: cell-based, Human; details: prostate line, 3 days after drug treatment
Description: as §1, §2, §3

C3H mammary model = details: cited from earlier work
PI3K = details: cited from earlier work

Compound | IC50 inhibition of tumor cell growth, PC2MM2 (PC3MM2) | IC50 inhibition of tumor cell growth, MCF7 (MCF7) | IC50 inhibition of tumor cell growth, HCT116 (HCT116) | IC50 inhibition of tumor cell growth, MDA468 (MDA468) | IC50 inhibition of tumor cell growth, OVCAR3 (OVCAR3) | IC50 inhibition of tumor cell growth, HTB44 (HTB44 (A498)) | Tumor Volume mean, Day 0 (U87MG Glioma Xenografts; 3 mg/kg IV on day 0 and day 7) | Tumor Volume mean, Day 3 (U87MG Glioma Xenografts; 3 mg/kg IV on day 0 and day 7) | Tumor Volume mean, Day 7 (U87MG Glioma Xenografts; 3 mg/kg IV on day 0 and day 7) | Tumor Volume mean, Day 10 (U87MG Glioma Xenografts; 3 mg/kg IV on day 0 and day 7) | Tumor Volume mean, Day 14 (U87MG Glioma Xenografts; 3 mg/kg IV on day 0 and day 7) | t/c (Treated over control) tumor volume, Day 0 (U87MG Glioma Xenografts; 3 mg/kg) | t/c (Treated over control) tumor volume, Day 3 (U87MG Glioma Xenografts; 3 mg/kg) | t/c (Treated over control) tumor volume, Day 7 (U87MG Glioma Xenografts; 3 mg/kg) | t/c (Treated over control) tumor volume, Day 10 (U87MG Glioma Xenografts; 3 mg/kg) | S/T (D14), Survival over total in group (U87MG Glioma Xenografts; 3 mg/kg) | t/c (Treated over control) tumor volume, Day 14 (U87MG Glioma Xenografts; 3 mg/kg) | Tumor Volume mean, Day 0 (U87MG Glioma Xenografts; 15 mg/kg IV on day 0 and day 7) | Tumor Volume mean, Day 3 (U87MG Glioma Xenografts; 15 mg/kg IV on day 0 and day 7) | IC50 inhibition of tumor cell growth, LNCap (LNCap) | further results
42,17′-linked wortmannin-adipate-rapamycin conjugate, diallylamine adduct [Compound D] | 0.43 µg/mL | 0.66 µg/mL | 5.00 µg/mL | 1.15 µg/mL | 1.75 µg/mL | 4.10 µg/mL | 185.1 mm^3 | 244.5 mm^3 | 435.4 mm^3 | 636.4 mm^3 | 1050.1 mm^3 | 1.00 | 0.89 | 0.87 | 0.60 | 10/10 | 0.47 | 181.5 mm^3 | 186.0 mm^3 | 0.21 µg/mL | Tumor Volume mean, Day 10 (U87MG Glioma Xenografts; 15 mg/kg IV on day 0 and day 7): 242.5 mm^3; Tumor Volume mean, Day 14 (U87MG Glioma Xenografts; 15 mg/kg IV on day 0 and day 7): 254.6 mm^3; t/c (Treated over control) tumor volume, Day 0 (U87MG Glioma Xenografts; 15 mg/kg): 0.98; t/c (Treated over control) tumor volume, Day 3 (U87MG Glioma Xenografts; 15 mg/kg): 0.68; t/c (Treated over control) tumor volume, Day 10 (U87MG Glioma Xenografts; 15 mg/kg): 0.23; S/T (D14), Survival over total in group (U87MG Glioma Xenografts; 15 mg/kg): 10/10; t/c (Treated over control) tumor volume, Day 14 (U87MG Glioma Xenografts; 15 mg/kg): 0.11
42,17′-linked wortmannin-adipate-rapamycin conjugate, N,N,N′-trimethyl 1,3-propanediamine adduct [Compound E] | 1.95 µg/mL | 1.00 µg/mL | 7.50 µg/mL | 1.35 µg/mL | 3.15 µg/mL | 5.00 µg/mL | 182.7 mm^3 | 214.7 mm^3 | 340.2 mm^3 | 471.6 mm^3 | 595.9 mm^3 | 0.99 | 0.78 | 0.68 | 0.45 | 10/10 | 0.27 | 187.5 mm^3 | 168.0 mm^3 | 0.25 µg/mL | Tumor Volume mean, Day 7 (U87MG Glioma Xenografts; 15 mg/kg IV on day 0 and day 7): 181.6 mm^3; Tumor Volume mean, Day 10 (U87MG Glioma Xenografts; 15 mg/kg IV on day 0 and day 7): 165.8 mm^3; Tumor Volume mean, Day 14 (U87MG Glioma Xenografts; 15 mg/kg IV on day 0 and day 7): 162.8 mm^3; t/c (Treated over control) tumor volume, Day 0 (U87MG Glioma Xenografts; 15 mg/kg): 1.01; t/c (Treated over control) tumor volume, Day 3 (U87MG Glioma Xenografts; 15 mg/kg): 0.61; t/c (Treated over control) tumor volume, Day 7 (U87MG Glioma Xenografts; 15 mg/kg): 0.36; t/c (Treated over control) tumor volume, Day 10 (U87MG Glioma Xenografts; 15 mg/kg): 0.16; S/T (D14), Survival over total in group (U87MG Glioma Xenografts; 15 mg/kg): 10/10; t/c (Treated over control) tumor volume, Day 14 (U87MG Glioma Xenografts; 15 mg/kg): 0.07; efficacy in multi-cycle treatment (FIG. 2) (U87MG Glioma Xenografts; multi-cycle treatment): sustained efficacy
42,17′-linked wortmannin-adipate-rapamycin conjugate [Compound B] | 1.10 µg/mL | 1.00 µg/mL | 16.50 µg/mL | 2.05 µg/mL | 4.70 µg/mL | 3.50 µg/mL |  |  |  |  |  |  |  |  |  |  |  |  |  | 0.80 µg/mL | 
42,17′-linked wortmannin-succinate-rapamycin conjugate, N,N,N′-trimethyl 1,3-propanediamine adduct [Compound C] | 0.50 µg/mL | 0.38 µg/mL | 4.20 µg/mL | 1.20 µg/mL | 1.13 µg/mL | 2.00 µg/mL | 193.0 mm^3 | 209.6 mm^3 | 437.2 mm^3 | 691.8 mm^3 | 1091.7 mm^3 | 1.04 | 0.76 | 0.88 | 0.66 | 10/10 | 0.49 | 183.6 mm^3 | 193.5 mm^3 | 0.20 µg/mL | Tumor Volume mean, Day 7 (U87MG Glioma Xenografts; 15 mg/kg IV on day 0 and day 7): 246.7 mm^3; Tumor Volume mean, Day 10 (U87MG Glioma Xenografts; 15 mg/kg IV on day 0 and day 7): 294.2 mm^3; t/c (Treated over control) tumor volume, Day 0 (U87MG Glioma Xenografts; 15 mg/kg): 0.99; t/c (Treated over control) tumor volume, Day 3 (U87MG Glioma Xenografts; 15 mg/kg): 0.70; t/c (Treated over control) tumor volume, Day 7 (U87MG Glioma Xenografts; 15 mg/kg): 0.49; t/c (Treated over control) tumor volume, Day 10 (U87MG Glioma Xenografts; 15 mg/kg): 0.28; S/T (D14), Survival over total in group (U87MG Glioma Xenografts; 15 mg/kg): 10/10; t/c (Treated over control) tumor volume, Day 14 (U87MG Glioma Xenografts; 15 mg/kg): 0.11; antitumor activity (FIG. 2) (U87MG Glioma Xenografts; i.v. 1× weekly for 2 rounds at 1.5 mg/kg): improved inhibition of tumor cell growth; antitumor activity (FIG. 2) (U87MG Glioma Xenografts; i.v. 1× weekly for 2 rounds at 4.5 mg/kg): some improvement; antitumor activity (FIG. 2) (U87MG Glioma Xenografts; i.v. 1× weekly for 8 rounds at 15 mg/kg): Significant improvement
COCC1OC(=O)c2coc3c2C1(C)C1=C(C3=O)C2CCC(O)C2(C)CC1OC(C)=O (stereo not drawn) [17β-Hydroxywortmannin] |  |  |  |  |  |  |  |  |  |  |  |  |  |  |  |  |  |  |  |  | anti-tumor activity in the C3H mammary model (C3H mammary model; dose of 0.5 mg/kg): no inhibition; toxicity in the C3H mammary model (C3H mammary model; dose of 1.0 mg/kg): toxicity; increase in activity relative to wortmannin (PI3K; PI3K): 10 fold; IC50 (PI3K): 0.5 nM
42,17′-linked wortmannin-adipate-rapamycin conjugate, diethylamine adduct [Compound A] | 2.55 µg/mL | 0.29 µg/mL | >30 µg/mL | 0.38 µg/mL | 8.50 µg/mL | 0.57 µg/mL |  |  |  |  |  |  |  |  |  |  |  |  |  | 0.04 µg/mL | 
